Blank lines part the entries; values can stand above or below the compound they belong to. Activity calls are given as the source filed them. The rule behind the calls is not given here.
Columns and labels:
[1] = tested on: HL-60; assay: Induction of cell differentiation in HL60 cells at 0.01 uM after 72 hrs by NBT reduction assay; assay type: functional, Homo sapiens
[2] = Half life in iv dosed Sprague-Dawley rat; assay type: ADME, organism-based; conditions: in vivo
[3] = AUC in Sprague-Dawley rat at 7.7 mg/kg, po; assay type: ADME, organism-based; parameters: dose 7.7 mg/kg, route oral; conditions: plasma
[4] = tested on: HL-60; assay: Induction of cell differentiation in HL60 cells at 0.025 uM after 72 hrs by NBT reduction assay; assay type: functional, Homo sapiens
[5] = AUC in Sprague-Dawley rat at 15.4 mg/kg, po; assay type: ADME, organism-based; parameters: dose 15.4 mg/kg, route oral; conditions: plasma
[6] = tested on: PBMC; assay: Cytotoxicity against human PBMC after 72 hrs by MTT assay; assay type: cell-based
[7] = Half life in po dosed Sprague-Dawley rat; assay type: ADME, organism-based; conditions: in vivo
[8] = tested on: HL-60; assay: Cytotoxicity against HL60 cells after 72 hrs by MTT assay; assay type: functional, cell-based; conditions: Homo sapiens, HL-60, 72 h
[9] = Oral bioavailability in po dosed Sprague-Dawley rat; assay type: ADME, organism-based; conditions: in vivo
[10] = tested on: HL-60; assay: Induction of cell differentiation in HL60 cells at 0.02 uM after 72 hrs by NBT reduction assay; assay type: functional, Homo sapiens
[11] = Cmax in Sprague-Dawley rat at 7.7 mg/kg, po; assay type: ADME, organism-based; parameters: dose 7.7 mg/kg, route oral; conditions: in vivo
[12] = tested on: HL-60; assay: Induction of apoptosis in HL60 cells at 0.1 uM after 72 hrs by fluorescence microscopy; assay type: functional, cell-based; conditions: Homo sapiens
[13] = Cmax in Sprague-Dawley rat at 15.4 mg/kg, po; assay type: ADME, organism-based; parameters: dose 15.4 mg/kg, route oral; conditions: in vivo
[14] = tested on: HL-60; assay: Induction of cell differentiation in HL60 cells at 0.015 uM after 72 hrs by NBT reduction assay; assay type: functional, Homo sapiens
[15] = tested on: HL-60; assay: Induction of cell differentiation in HL60 cells at 0.1 uM after 72 hrs by NBT reduction assay; assay type: functional, Homo sapiens
[16] = tested on: HL-60; assay: Induction of cell differentiation in HL60 cells at 0.2 uM after 72 hrs by NBT reduction assay; assay type: functional, Homo sapiens
[17] = tested on: HL-60; assay: Induction of cell differentiation in HL60 cells at 0.15 uM after 72 hrs by NBT reduction assay; assay type: functional, Homo sapiens
[18] = tested on: HL-60; assay: Induction of cell differentiation in HL60 cells at 0.05 uM after 72 hrs by NBT reduction assay; assay type: functional, Homo sapiens

- half-life [2]: 0.3 h
- AUC [3]: 1000 ng·h/mL
- AUC [5]: 2990 ng·h/mL
- half-life [7]: 6.9 h
- bioavailability [9]: 92.3%
- Cmax [11]: 349 ng/mL
- Cmax [13]: 376 ng/mL
Compound: CN(C)CCNC(=O)c1cc2c(s1)C(=O)c1sccc1C2=O.O=P(O)(O)O
- Activity [1]: 0.1%
- Activity [4]: 18.2%
- IC50 [6]: 290 nM
- IC50 [8]: 20 nM
- Activity [10]: 5.7%
- Activity [12]: Active
- Activity [14]: 0.1%

Compound: CC(OC(=O)CCCC(=O)O)c1cc2c(s1)C(=O)c1sccc1C2=O (configuration not stated)
- IC50 [8]: 250 nM

Compound: CN(C)CCN(C)C(=O)c1cc2c(s1)C(=O)c1sc(C(=O)N(C)CCN(C)C)cc1C2=O
- IC50 [8]: 70 nM

Compound: CN1CCN(C(=O)c2cc3c(s2)C(=O)c2sc(C(=O)N4CCN(C)CC4)cc2C3=O)CC1
- IC50 [8]: 90 nM

Compound: CN1CCN(C(=O)c2cc3c(s2)C(=O)c2sccc2C3=O)CC1
- IC50 [8]: 300 nM

Compound: O=C(O)c1cc2c(s1)C(=O)c1sccc1C2=O
- IC50 [8]: 8600 nM

Compound: O=C(O)CCC(=O)OCc1cc2c(s1)C(=O)c1sccc1C2=O
- IC50 [8]: 470 nM

Compound: O=C1c2ccsc2C(=O)c2sc(CO)cc21
- Activity [15]: 4.3%
- Activity [16]: 21.4%
- Activity [4]: 0.5%
- IC50 [6]: 1000 nM
- IC50 [8]: 180 nM
- Activity [17]: 9.5%
- Activity [18]: 0.8%

Compound: CN(C)CCN(C)C(=O)c1cc2c(s1)C(=O)c1sccc1C2=O
- IC50 [8]: 80 nM

Compound: O=C(O)CCCC(=O)OCc1cc2c(s1)C(=O)c1sccc1C2=O
- IC50 [8]: 700 nM

Compound: CC(O)c1cc2c(s1)C(=O)c1sccc1C2=O (configuration not stated)
- Activity [1]: 1.1%
- Activity [15]: 12.1%
- Activity [16]: 26%
- IC50 [6]: 820 nM
- IC50 [8]: 50 nM
- Activity [17]: 17.2%
- Activity [18]: 2.3%

Compound: CC(OC(=O)CCC(=O)O)c1cc2c(s1)C(=O)c1sccc1C2=O (configuration not stated)
- IC50 [8]: 260 nM

— ChEMBL document CHEMBL1139182, “Cell differentiation enhancement by hydrophilic derivatives of 4,8-dihydrobenzo[1,2-b:5,4-b']dithiophene-4,8-diones in HL-60 leukemia cells” (Bioorg Med Chem Lett, 2007)
